# Laboratory results published in PubChem BioAssay AID1963869 (Molecular Pharmacology Branch, DTP, NCI, 2024).
# Where “and” joins values, the source holds several entries; their conditions need not be identical. Identical values can stand only once.
# Tested on: KRAS patient-derived spheroids with HUVEC/MSC, viability
# Assay: Anticancer human tumor 323965-272-R-J2-PDC patient-derived pancreatic carcinoma cell line growth inhibition [KRAS2]
# Conditions: for viability, T/C: stronger effect = lower value
# Summary of the method: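 Combination screen of spheroid viability in tumor-cell co-cultures with endothelial (HUVEC) and mesenchymal stem cell stroma. Each agent was tested in half-log dilutions, topping at clinical Cmax or at 10 microM without a known Cmax.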
# [1] = curve of first compound, second compound 0.1 µM
# [2] = curve of first compound, second compound 0.316 µM
# [3] = curve of first compound, second compound 1 µM
# [4] = curve of first compound, second compound 3.16 µM
# [5] = curve of first compound, second compound 10 µM
# [6] = second compound 0.1 µM, first compound 0.000316 µM
# [7] = second compound 0.1 µM, first compound 0.001 µM
# [8] = second compound 0.1 µM, first compound 0.00316 µM
# [9] = second compound 0.1 µM, first compound 0.01 µM
# [10] = second compound 0.1 µM, first compound 0.0316 µM
# [11] = second compound 0.1 µM, first compound 0.1 µM
# [12] = second compound 0.316 µM, first compound 0.000316 µM
# [13] = second compound 0.316 µM, first compound 0.001 µM
# [14] = second compound 0.316 µM, first compound 0.00316 µM
# [15] = second compound 0.316 µM, first compound 0.01 µM
# [16] = second compound 0.316 µM, first compound 0.0316 µM
# [17] = second compound 0.316 µM, first compound 0.1 µM
# [18] = second compound 1 µM, first compound 0.000316 µM
# [19] = second compound 1 µM, first compound 0.001 µM
# [20] = second compound 1 µM, first compound 0.00316 µM
# [21] = second compound 1 µM, first compound 0.01 µM
# [22] = second compound 1 µM, first compound 0.0316 µM
# [23] = second compound 1 µM, first compound 0.1 µM
# [24] = second compound 3.16 µM, first compound 0.000316 µM
# [25] = second compound 3.16 µM, first compound 0.001 µM
# [26] = second compound 3.16 µM, first compound 0.00316 µM
# [27] = second compound 3.16 µM, first compound 0.01 µM
# [28] = second compound 3.16 µM, first compound 0.0316 µM
# [29] = second compound 3.16 µM, first compound 0.1 µM
# [30] = second compound 10 µM, first compound 0.000316 µM
# [31] = second compound 10 µM, first compound 0.001 µM
# [32] = second compound 10 µM, first compound 0.00316 µM
# [33] = second compound 10 µM, first compound 0.01 µM
# [34] = second compound 10 µM, first compound 0.0316 µM
# [35] = second compound 10 µM, first compound 0.1 µM
# [36] = second compound 0.1 µM, first compound 0.316 µM
# [37] = second compound 0.1 µM, first compound 1 µM
# [38] = second compound 0.316 µM, first compound 0.316 µM
# [39] = second compound 0.316 µM, first compound 1 µM
# [40] = second compound 1 µM, first compound 0.316 µM
# [41] = second compound 1 µM, first compound 1 µM
# [42] = second compound 3.16 µM, first compound 0.316 µM
# [43] = second compound 3.16 µM, first compound 1 µM
# [44] = second compound 10 µM, first compound 0.316 µM
# [45] = second compound 10 µM, first compound 1 µM
# 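Also: spheroids exposed to agents for 7 days.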
# 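For viability, T/C in this document: 100% = DMSO vehicle control viability.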
Structure (SMILES),IC50 [1] [nM],IC50 [2] [nM],IC50 [3] [nM],IC50 [4] [nM],IC50 [5] [nM],"viability, T/C [8] [%]","viability, T/C [9] [%]","viability, T/C [10] [%]","viability, T/C [11] [%]","viability, T/C [14] [%]","viability, T/C [15] [%]","viability, T/C [16] [%]","viability, T/C [17] [%]","viability, T/C [20] [%]","viability, T/C [22] [%]","viability, T/C [23] [%]","viability, T/C [28] [%]","viability, T/C [29] [%]","viability, T/C [34] [%]","viability, T/C [35] [%]",other results
Cn1ncnc1[C@H]1c2n[nH]c(=O)c3cc(F)cc(c23)N[C@@H]1c1ccc(F)cc1 + CC1OCC2(CCN(c3cnc(Sc4ccnc(N)c4Cl)c(N)n3)CC2)C1N,> 100,35.9,< 0.316,< 0.316,< 0.316,82.9,79.7,76.2,62,55.2,53.6,51.2,45,45.7,42,38,24.4,21,18.7,17.2,"viability, T/C [6]: 80.9%; viability, T/C [7]: 82.9%; viability, T/C [12]: 57.5%; viability, T/C [13]: 62.5%; viability, T/C [18]: 44%; viability, T/C [19]: 47.5%; viability, T/C [21]: 43.7%; viability, T/C [24]: 34.4%; viability, T/C [25]: 32%; viability, T/C [26]: 30.1%; viability, T/C [27]: 28.2%; viability, T/C [30]: 29.3%; viability, T/C [31]: 23.2%; viability, T/C [32]: 20.8%; viability, T/C [33]: 20.1%"
CC1OCC2(CCN(c3cnc(Sc4ccnc(N)c4Cl)c(N)n3)CC2)C1N (stereo not given),,,,,,,,,,,,,,,,,,,,,"viability, T/C (compound 0.0316 µM): 77.5% and 85.9% and 85.1%; viability, T/C (compound 0.316 µM): 60% [middle of 19 runs]; IC50 (compound alone, run of 08/26/2021): 785 nM [middle of 5 runs]; IC50 (compound alone, run of 09/02/2021): 535 nM [middle of 6 runs]; IC50 (curve of compound): 1.1 µM [middle of 5 runs]"
CCN1CCN(Cc2ccc(Nc3ncc(F)c(-c4cc(F)c5nc(C)n(C(C)C)c5c4)n3)nc2)CC1 + CC1OCC2(CCN(c3cnc(Sc4ccnc(N)c4Cl)c(N)n3)CC2)C1N,25.2,14.6,< 3.16,< 3.16,< 3.16,72.6,66.4,45.8,46.4,51.3,56.5,42.1,36.8,38.5,26.2,23.4,14.9,14.7,13.9,10.5,"viability, T/C [36]: 42%; viability, T/C [37]: 49.7%; viability, T/C [38]: 35.5%; viability, T/C [39]: 42.3%; viability, T/C [21]: 37.7%; viability, T/C [40]: 26.1%; viability, T/C [41]: 35.3%; viability, T/C [26]: 18.8%; viability, T/C [27]: 15.7%; viability, T/C [42]: 17.9%; viability, T/C [43]: 29.5%; viability, T/C [32]: 13.7%; viability, T/C [33]: 16.3%; viability, T/C [44]: 14.5%; viability, T/C [45]: 25.7%"
CN(C)C/C=C/C(=O)Nc1cc2c(Nc3ccc(F)c(Cl)c3)ncnc2cc1O[C@H]1CCOC1 + CC1OCC2(CCN(c3cnc(Sc4ccnc(N)c4Cl)c(N)n3)CC2)C1N,> 100,0.979,> 100,< 0.316,> 100,65.4,57.8,57.7,58.6,48.1,38.1,41.1,44.6,78.5,64.6,63.3,28.6,34.7,59.8,55.9,"viability, T/C [6]: 68.4%; viability, T/C [7]: 75.9%; viability, T/C [12]: 63%; viability, T/C [13]: 49%; viability, T/C [18]: 96.4%; viability, T/C [19]: 95.8%; viability, T/C [21]: 75.2%; viability, T/C [24]: 39%; viability, T/C [25]: 33%; viability, T/C [26]: 27.4%; viability, T/C [27]: 27.7%; viability, T/C [30]: 107%; viability, T/C [31]: 96.9%; viability, T/C [32]: 70.5%; viability, T/C [33]: 56%"
COc1cc2nccc(Oc3ccc(NC(=O)C4(C(=O)Nc5ccc(F)cc5)CC4)cc3)c2cc1OC + CC1OCC2(CCN(c3cnc(Sc4ccnc(N)c4Cl)c(N)n3)CC2)C1N,> 10000,> 10000,< 31.6,< 31.6,< 31.6,,,80.4,80.5,,,58.7,65.4,,46.9,42.4,35.1,36.1,27.4,28.8,"viability, T/C [36]: 74.9%; viability, T/C [37]: 87.4%; viability, T/C (second compound 0.1 µM, first compound 3.16 µM): 79.8%; viability, T/C (second compound 0.1 µM, first compound 10 µM): 73.5%; viability, T/C [38]: 65.5%; viability, T/C [39]: 64.6%; viability, T/C (second compound 0.316 µM, first compound 3.16 µM): 71.9%; viability, T/C (second compound 0.316 µM, first compound 10 µM): 63%; viability, T/C [40]: 46.9%; viability, T/C [41]: 58.4%; viability, T/C (second compound 1 µM, first compound 3.16 µM): 52.8%; viability, T/C (second compound 1 µM, first compound 10 µM): 45.4%; viability, T/C [42]: 36.3%; viability, T/C [43]: 35.5%; viability, T/C (second compound 3.16 µM, first compound 3.16 µM): 35.2%; viability, T/C (second compound 3.16 µM, first compound 10 µM): 29.8%; viability, T/C [44]: 26.8%; viability, T/C [45]: 30.3%; viability, T/C (second compound 10 µM, first compound 3.16 µM): 33.5%; viability, T/C (second compound 10 µM, first compound 10 µM): 27.3%"
